Source: PubChem BioAssay (NCI)
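GI50 marks 50% less growth. At the TGI there is no net growth.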

Key:
Assay in all cases: NCI-60 cell line screen, 384-well format
SNB-75 CNS = tested on: SNB-75 CNS
MCF7 breast = tested on: MCF7 breast
COLO 205 colon = tested on: COLO 205 colon
HCC-2998 colon = tested on: HCC-2998 colon
OVCAR-8 ovarian = tested on: OVCAR-8 ovarian
HOP-92 NSCLC = tested on: HOP-92 NSCLC
PC-3 prostate = tested on: PC-3 prostate
SF-539 CNS = tested on: SF-539 CNS
MALME-3M melanoma = tested on: MALME-3M melanoma
SF-295 CNS = tested on: SF-295 CNS
UACC-62 melanoma = tested on: UACC-62 melanoma
HCT-116 colon = tested on: HCT-116 colon
A498 renal = tested on: A498 renal
MDA-MB-435 melanoma = tested on: MDA-MB-435 melanoma
M14 melanoma = tested on: M14 melanoma
OVCAR-4 ovarian = tested on: OVCAR-4 ovarian
MOLT-4 leukemia = tested on: MOLT-4 leukemia
NCI-H522 lung = tested on: NCI-H522 lung
SK-MEL-28 melanoma = tested on: SK-MEL-28 melanoma
SK-OV-3 ovarian = tested on: SK-OV-3 ovarian
U251 glioblastoma = tested on: U251 glioblastoma
A549 NSCLC = tested on: A549 NSCLC
HS 578T breast = tested on: HS 578T breast
MDA-MB-468 breast = tested on: MDA-MB-468 breast
RXF 393 renal = tested on: RXF 393 renal
LOX IMVI melanoma = tested on: LOX IMVI melanoma
SR leukemia = tested on: SR leukemia
TK-10 renal = tested on: TK-10 renal
HL-60(TB) leukemia = tested on: HL-60(TB) leukemia
NCI-H23 lung = tested on: NCI-H23 lung
OVCAR-3 ovarian = tested on: OVCAR-3 ovarian
SF-268 CNS = tested on: SF-268 CNS
BT-549 breast = tested on: BT-549 breast
ACHN renal = tested on: ACHN renal
DU-145 prostate = tested on: DU-145 prostate
NCI-H322M lung = tested on: NCI-H322M lung
MDA-MB-231 breast = tested on: MDA-MB-231 breast
NCI/ADR-RES ovarian = tested on: NCI/ADR-RES ovarian
EKVX NSCLC = tested on: EKVX NSCLC
IGROV1 ovarian = tested on: IGROV1 ovarian
HT29 colon = tested on: HT29 colon
RPMI-8226 leukemia = tested on: RPMI-8226 leukemia
SNB-19 CNS = tested on: SNB-19 CNS
CAKI-1 renal = tested on: CAKI-1 renal
OVCAR-5 ovarian = tested on: OVCAR-5 ovarian
HOP-62 NSCLC = tested on: HOP-62 NSCLC
SN12C renal = tested on: SN12C renal
HCT-15 colon = tested on: HCT-15 colon
NCI-H460 NSCLC = tested on: NCI-H460 NSCLC
SK-MEL-5 melanoma = tested on: SK-MEL-5 melanoma
T-47D breast = tested on: T-47D breast
UACC-257 melanoma = tested on: UACC-257 melanoma
KM12 colon = tested on: KM12 colon

Nc1ccc(-c2ccc3ncc4ccc(=O)n(-c5cccc(C(F)(F)F)c5)c4c3c2)cn1
GI50 (SNB-75 CNS): < 10 nM | TGI (SNB-75 CNS): 1150 nM | GI50 (MCF7 breast): < 10 nM | TGI (MCF7 breast): 2740 nM | GI50 (COLO 205 colon): 20.5 nM | TGI (COLO 205 colon): 103 nM | GI50 (HCC-2998 colon): 10.5 nM | TGI (HCC-2998 colon): 318 nM | GI50 (OVCAR-8 ovarian): 11.4 nM | TGI (OVCAR-8 ovarian): 1370 nM | GI50 (HOP-92 NSCLC): 26.1 nM | TGI (HOP-92 NSCLC): 1000 nM | GI50 (PC-3 prostate): < 10 nM | TGI (PC-3 prostate): 122 nM | GI50 (SF-539 CNS): < 10 nM | TGI (SF-539 CNS): 389 nM | GI50 (MALME-3M melanoma): < 10 nM | TGI (MALME-3M melanoma): 151 nM | GI50 (SF-295 CNS): < 10 nM | TGI (SF-295 CNS): 196 nM | GI50 (UACC-62 melanoma): < 10 nM | TGI (UACC-62 melanoma): 565 nM | GI50 (HCT-116 colon): 25.5 nM | TGI (HCT-116 colon): 242 nM | GI50 (A498 renal): < 10 nM | TGI (A498 renal): 13.2 nM | GI50 (MDA-MB-435 melanoma): 10.2 nM | TGI (MDA-MB-435 melanoma): 91.4 nM | GI50 (M14 melanoma): < 10 nM | TGI (M14 melanoma): 136 nM | GI50 (OVCAR-4 ovarian): < 10 nM | TGI (OVCAR-4 ovarian): 38.9 nM | GI50 (MOLT-4 leukemia): < 10 nM | TGI (MOLT-4 leukemia): 28.5 nM | GI50 (NCI-H522 lung): < 10 nM | TGI (NCI-H522 lung): 168 nM | GI50 (SK-MEL-28 melanoma): 26 nM | TGI (SK-MEL-28 melanoma): 14200 nM | GI50 (SK-OV-3 ovarian): < 10 nM | TGI (SK-OV-3 ovarian): 1020 nM | GI50 (U251 glioblastoma): 30.1 nM | TGI (U251 glioblastoma): 1190 nM | GI50 (A549 NSCLC): < 10 nM | TGI (A549 NSCLC): 1070 nM | GI50 (HS 578T breast): < 10 nM | TGI (HS 578T breast): 50.8 nM | GI50 (MDA-MB-468 breast): < 10 nM | TGI (MDA-MB-468 breast): 171 nM | GI50 (RXF 393 renal): 17.5 nM | TGI (RXF 393 renal): 1400 nM | GI50 (LOX IMVI melanoma): < 10 nM | TGI (LOX IMVI melanoma): 33.4 nM | GI50 (SR leukemia): < 10 nM | TGI (SR leukemia): < 10 nM | GI50 (TK-10 renal): < 10 nM | TGI (TK-10 renal): 40.2 nM | GI50 (HL-60(TB) leukemia): 17.9 nM | TGI (HL-60(TB) leukemia): 128 nM | GI50 (NCI-H23 lung): 23.2 nM | TGI (NCI-H23 lung): 400 nM | GI50 (OVCAR-3 ovarian): < 10 nM | TGI (OVCAR-3 ovarian): 293 nM | GI50 (SF-268 CNS): 34.5 nM | TGI (SF-268 CNS): 1140 nM | GI50 (BT-549 breast): < 10 nM | TGI (BT-549 breast): 35.8 nM | GI50 (ACHN renal): < 10 nM | TGI (ACHN renal): 168 nM | GI50 (DU-145 prostate): < 10 nM | TGI (DU-145 prostate): 378 nM | GI50 (NCI-H322M lung): < 10 nM | TGI (NCI-H322M lung): 46.9 nM | GI50 (MDA-MB-231 breast): < 10 nM | TGI (MDA-MB-231 breast): 12500 nM | GI50 (NCI/ADR-RES ovarian): 26.1 nM | TGI (NCI/ADR-RES ovarian): 1070 nM | GI50 (EKVX NSCLC): < 10 nM | TGI (EKVX NSCLC): 62.9 nM | GI50 (IGROV1 ovarian): < 10 nM | TGI (IGROV1 ovarian): < 10 nM | GI50 (HT29 colon): 45.6 nM | TGI (HT29 colon): 1320 nM | GI50 (RPMI-8226 leukemia): < 10 nM | TGI (RPMI-8226 leukemia): < 10 nM | GI50 (SNB-19 CNS): 52.3 nM | TGI (SNB-19 CNS): 2380 nM | GI50 (CAKI-1 renal): 10.5 nM | TGI (CAKI-1 renal): 1080 nM | GI50 (OVCAR-5 ovarian): 13.4 nM | TGI (OVCAR-5 ovarian): 67.3 nM | GI50 (HOP-62 NSCLC): < 10 nM | TGI (HOP-62 NSCLC): 46.3 nM | GI50 (SN12C renal): < 10 nM | TGI (SN12C renal): 86 nM | GI50 (HCT-15 colon): < 10 nM | TGI (HCT-15 colon): 1080 nM | GI50 (NCI-H460 NSCLC): < 10 nM | TGI (NCI-H460 NSCLC): 71 nM | GI50 (SK-MEL-5 melanoma): < 10 nM | TGI (SK-MEL-5 melanoma): 24.5 nM | GI50 (T-47D breast): < 10 nM | TGI (T-47D breast): 1310 nM | GI50 (UACC-257 melanoma): 25.5 nM | TGI (UACC-257 melanoma): 199 nM | GI50 (KM12 colon): < 10 nM | TGI (KM12 colon): 2470 nM
